Experimental findings from PubChem BioAssay AID256 (DTP/NCI, 2004) are described below.

Where “and” joins values, the source holds several entries; their conditions need not be identical. Equal entries are not always repeated. Toxic doses and inconclusive results are not listed.

In the experiment the test system is CD2F1 mice, L1210 leukemia ip, survival T/C. Put plainly: NCI In Vivo Anticancer Drug Screen. Data for tumor model L1210 Leukemia (intraperitoneal) in CD2F1 (CDF1) mice. The settings on record: higher = longer survival. The method, boiled down: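 Transplantable tumor in mice; compound-treated vs vehicle-treated groups. Read-out = treated/control ratio of the measured endpoint.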

Where [1] appears, read: endpoint: mean survival time, dose: 100.0 mg/kg/injection, schedule: Q01DX009 (ip), vehicle: saline with Tween-80.
Setting [2] is: endpoint: mean survival time, dose: 200.0 mg/kg/injection, schedule: Q01DX009 (ip), vehicle: saline with Tween-80.
The mark [3] stands for this setting: endpoint: mean survival time, dose: 400.0 mg/kg/injection, schedule: Q01DX009 (ip), vehicle: saline with Tween-80.
Setting [4] is: endpoint: mean survival time, dose: 50.0 mg/kg/injection, schedule: Q01DX009 (ip), vehicle: saline with Tween-80.
Where [5] appears, read: endpoint: mean survival time, dose: 100.0 mg/kg/injection, schedule: Q04DX003 (ip), vehicle: saline with Tween-80.
The mark [6] stands for this setting: endpoint: mean survival time, dose: 200.0 mg/kg/injection, schedule: Q04DX003 (ip), vehicle: saline with Tween-80.
The mark [7] stands for this setting: endpoint: mean survival time, dose: 100.0 mg/kg/injection, schedule: Q01DX001 (ip), vehicle: saline with Tween-80.
The mark [8] stands for this setting: endpoint: mean survival time, dose: 200.0 mg/kg/injection, schedule: Q01DX001 (ip), vehicle: saline with Tween-80.

For `Nc1nc(N)c2nc(CNc3ccc(C(=O)NC(CC(=O)O)C(=O)O)cc3)cnc2n1` (stereo unspecified), the T/C (endpoint: mean survival time, dose: 6.25 mg/kg/injection, schedule: Q01DX001 (ip), vehicle: saline) was 101 % of control; the T/C (endpoint: mean survival time, dose: 12.5 mg/kg/injection, schedule: Q01DX001 (ip), vehicle: saline) was 98 % of control; the T/C (endpoint: mean survival time, dose: 25.0 mg/kg/injection, schedule: Q01DX001 (ip), vehicle: saline) was 107 % of control; the T/C (endpoint: mean survival time, dose: 50.0 mg/kg/injection, schedule: Q01DX001 (ip), vehicle: saline) is 104 % of control; the T/C (endpoint: mean survival time, dose: 100.0 mg/kg/injection, schedule: Q01DX001 (ip), vehicle: saline) was 104 % of control; the T/C (endpoint: mean survival time, dose: 200.0 mg/kg/injection, schedule: Q01DX001 (ip), vehicle: saline) is 117 % of control.

Turning to `CCC12CC(Br)C(C1)OC2=O` (stereo unspecified), the T/C (endpoint: mean survival time, dose: 100.0 mg/kg/injection, schedule: Q01DX009 (ip), vehicle: other) is 96 % of control; the T/C (endpoint: mean survival time, dose: 200.0 mg/kg/injection, schedule: Q01DX009 (ip), vehicle: other) was 101 % of control; the T/C (endpoint: mean survival time, dose: 400.0 mg/kg/injection, schedule: Q01DX009 (ip), vehicle: other) was 100 % of control.

As to `CN1C(=O)[N+]2(CCCCC2)N=C1[O-]`, the T/C under setting [1] is 96 % of control; the T/C (endpoint: mean survival time, dose: 100.0 mg/kg/injection, schedule: Q04DX003 (ip), vehicle: saline) is 91 % of control; the T/C under setting [2] was 102 % of control; the T/C (endpoint: mean survival time, dose: 200.0 mg/kg/injection, schedule: Q04DX003 (ip), vehicle: saline) was 97 % of control; the T/C under setting [3] is 106 % of control; the T/C (endpoint: mean survival time, dose: 400.0 mg/kg/injection, schedule: Q04DX003 (ip), vehicle: saline) is 95 % of control.

Turning to `C1=CC2C=CC12` (stereo unspecified), the T/C reads like this: under setting [4], 105 % of control; under setting [1], 108 % of control; under setting [5], 95 % of control; under setting [6], 104 % of control.

As to `COc1ccc(/C=N/NC(=O)CNC(=O)Nc2cccc(C(F)(F)F)c2)cc1`, the T/C is, setting by setting: under setting [4], 92 % of control; under setting [1], 88 % of control; under setting [2], 92 % of control.

Regarding `COc1cc([N+](=O)[O-])c(C(=O)O)c(C(=O)O)c1OC`, the T/C (endpoint: mean survival time, dose: 12.5 mg/kg/injection, schedule: Q04DX002 (ip), vehicle: saline with Tween-80) is 104 % of control; the T/C (endpoint: mean survival time, dose: 25.0 mg/kg/injection, schedule: Q04DX002 (ip), vehicle: saline with Tween-80) was 96 % of control; the T/C (endpoint: mean survival time, dose: 50.0 mg/kg/injection, schedule: Q04DX002 (ip), vehicle: saline with Tween-80) was 104 % of control.

Regarding `O=C(NCCBr)Nc1ccccc1`, the T/C runs as follows: (endpoint: mean survival time, dose: 12.5 mg/kg/injection, schedule: Q04DX002 (ip), vehicle: Klucel (hydroxypropylcellulose) (HPC)) 92 % of control; (endpoint: mean survival time, dose: 25.0 mg/kg/injection, schedule: Q04DX002 (ip), vehicle: Klucel (hydroxypropylcellulose) (HPC)) 92 % of control; (endpoint: mean survival time, dose: 50.0 mg/kg/injection, schedule: Q04DX002 (ip), vehicle: Klucel (hydroxypropylcellulose) (HPC)) 96 % of control.

Consider `CCCCCCCCCCCCCCCCCC[N+](CC)(CC)CC`, for which the T/C was 91 % of control (endpoint: mean survival time, dose: 0.75 mg/kg/injection, schedule: Q01DX001 (ip), vehicle: Klucel (hydroxypropylcellulose) (HPC)); 108 % of control (endpoint: mean survival time, dose: 1.5 mg/kg/injection, schedule: Q01DX001 (ip), vehicle: Klucel (hydroxypropylcellulose) (HPC)); 100 % of control (endpoint: mean survival time, dose: 3.0 mg/kg/injection, schedule: Q01DX001 (ip), vehicle: Klucel (hydroxypropylcellulose) (HPC)).

On to `CCCC1CCC(=C2C(=O)CCC2=O)O1` (stereo unspecified), for which the T/C reads like this: (endpoint: median survival time, dose: 25.0 mg/kg/injection, schedule: Q01DX009 (ip), vehicle: saline with Tween-80) 98 % of control; (endpoint: median survival time, dose: 50.0 mg/kg/injection, schedule: Q01DX009 (ip), vehicle: saline with Tween-80) 100 % of control; (endpoint: median survival time, dose: 100.0 mg/kg/injection, schedule: Q01DX009 (ip), vehicle: saline with Tween-80) 100 % of control; (endpoint: median survival time, dose: 200.0 mg/kg/injection, schedule: Q01DX009 (ip), vehicle: saline with Tween-80) 102 % of control.

`CC(C)(C)S/C(=N/N=O)NN=O`: the T/C under setting [7] is 100 % of control; the T/C under setting [8] was 102 % of control; the T/C (endpoint: mean survival time, dose: 400.0 mg/kg/injection, schedule: Q01DX001 (ip), vehicle: saline with Tween-80) was 94 % of control.

Consider `COc1ccc(S(=O)(=O)N/N=C/C(=O)O)cc1`, for which the T/C (endpoint: mean survival time, dose: 6.25 mg/kg/injection, schedule: Q01DX009 (ip), vehicle: saline with Tween-80) is 115 % of control; the T/C (endpoint: mean survival time, dose: 12.5 mg/kg/injection, schedule: Q01DX009 (ip), vehicle: alkali diluted with water) is 114 % of control; the T/C (endpoint: mean survival time, dose: 12.5 mg/kg/injection, schedule: Q01DX009 (ip), vehicle: saline with Tween-80) was 121 % of control; the T/C (endpoint: mean survival time, dose: 12.5 mg/kg/injection, schedule: Q04DX003 (ip), vehicle: other) is 109 % of control; the T/C (endpoint: mean survival time, dose: 25.0 mg/kg/injection, schedule: Q01DX009 (ip), vehicle: alkali diluted with water) is 116 % of control; the T/C (endpoint: mean survival time, dose: 25.0 mg/kg/injection, schedule: Q04DX003 (ip), vehicle: other) was 117 % of control. Also, the T/C by setting is: (endpoint: mean survival time, dose: 50.0 mg/kg/injection, schedule: Q01DX009 (ip), vehicle: alkali diluted with water) 124 % of control; under setting [4], 163 % of control; (endpoint: mean survival time, dose: 50.0 mg/kg/injection, schedule: Q04DX003 (ip), vehicle: other) 124 % of control; under setting [1], 151 % of control; (endpoint: mean survival time, dose: 100.0 mg/kg/injection, schedule: Q04DX003 (ip), vehicle: other) 154 % of control; (endpoint: mean survival time, dose: 200.0 mg/kg/injection, schedule: Q01DX009 (ip), vehicle: alkali diluted with water) 153 % of control. The T/C is, setting by setting: (endpoint: mean survival time, dose: 200.0 mg/kg/injection, schedule: Q04DX003 (ip), vehicle: other) 155 % of control and 163 % of control and 203 % of control; (endpoint: median survival time, dose: 12.5 mg/kg/injection, schedule: Q01DX009 (oral), vehicle: saline with Tween-80) 105 % of control; (endpoint: median survival time, dose: 25.0 mg/kg/injection, schedule: Q01DX009 (oral), vehicle: saline with Tween-80) 105 % of control; (endpoint: median survival time, dose: 50.0 mg/kg/injection, schedule: Q01DX009 (oral), vehicle: saline with Tween-80) 103 % of control; (endpoint: median survival time, dose: 100.0 mg/kg/injection, schedule: Q01DX009 (oral), vehicle: saline with Tween-80) 95 % of control; (endpoint: median survival time, dose: 200.0 mg/kg/injection, schedule: Q01DX009 (oral), vehicle: saline with Tween-80) 98 % of control. Further, where the note is “endpoint: median survival time, dose: 400.0 mg/kg/injection, schedule: Q01DX009 (oral), vehicle: saline with Tween-80”, the T/C is 105 % of control.

Consider `CCN1CCN(CC)C1c1ccccc1`, for which the T/C is 103 % of control under setting [1] and 98 % of control under setting [2].

On to `CC/C=N/NC(N)=S`, for which the T/C by setting is: (endpoint: mean survival time, dose: 5.0 mg/kg/injection, schedule: Q01DX001 (ip), vehicle: saline) 98 % of control; (endpoint: mean survival time, dose: 10.0 mg/kg/injection, schedule: Q01DX001 (ip), vehicle: saline) 102 % of control; (endpoint: mean survival time, dose: 20.0 mg/kg/injection, schedule: Q01DX001 (ip), vehicle: saline) 106 % of control.

`CC(=O)OC1CCC2(C)C(CCC3C4CC=C(C(C)=O)C4(C)CCC32)C1` (stereo unspecified): the T/C reads like this: under setting [1], 92 % of control; under setting [2], 92 % of control; under setting [3], 89 % of control.

Consider `Cc1ccc(C2(C#N)CCCC2)cc1`, for which the T/C runs as follows: (endpoint: mean survival time, dose: 100.0 mg/kg/injection, schedule: Q01DX009 (ip), vehicle: saline sonified) 97 % of control; under setting [5], 97 % of control; (endpoint: mean survival time, dose: 200.0 mg/kg/injection, schedule: Q01DX009 (ip), vehicle: saline sonified) 97 % of control; under setting [6], 97 % of control; (endpoint: mean survival time, dose: 400.0 mg/kg/injection, schedule: Q01DX009 (ip), vehicle: saline sonified) 88 % of control; (endpoint: mean survival time, dose: 400.0 mg/kg/injection, schedule: Q04DX003 (ip), vehicle: saline with Tween-80) 97 % of control.

For the molecule `Cc1c(Cl)c(Cl)c(NS(=O)(=O)c2ccccc2)c(NS(=O)(=O)c2ccccc2)c1Cl`, the T/C is 97 % of control (endpoint: mean survival time, dose: 100.0 mg/kg/injection, schedule: Q04DX003 (ip), vehicle: Klucel (hydroxypropylcellulose) (HPC)); 104 % of control (endpoint: mean survival time, dose: 200.0 mg/kg/injection, schedule: Q04DX003 (ip), vehicle: Klucel (hydroxypropylcellulose) (HPC)); 95 % of control (endpoint: mean survival time, dose: 400.0 mg/kg/injection, schedule: Q04DX003 (ip), vehicle: Klucel (hydroxypropylcellulose) (HPC)).

As for `O=C(Nc1cc(Cl)c(Cl)cc1Cl)Nc1cc(Cl)ccc1Oc1ccc(Cl)cc1S(=O)(=O)O`, the T/C runs as follows: under setting [7], 96 % of control; under setting [8], 98 % of control.
